US20040006236A1, “Diaminopropionic acid derivatives” (priority 1999, published 2004)
Like-named read-outs stand apart in the source and are kept apart here.

Key:
[1] = test system: cell-surface Mac-1 adhesion to immobilized fibrinogen (HL-60 cells); assay: Mac-1/Fibrinogen cell-based screening assay; parameters: species or system human; details: read-out: Mac-1/Fgn Cell based Assay IC50
Description: Cellular Mac-1/Fibrinogen antagonist activity, defined as the ability to inhibit cell-surface Mac-1 adhesion to immobilized fibrinogen, was quantitated by a cell based assay. Human fibrinogen was coated onto 96 well microtiter plates (1 μg in 100 μL TBS) overnight at 4° C. The plates were then blocked with 150 μL of 10% polyvinyl pyrrolidone (PVP) in TBS for 1 h at 37° C. Plates were washed 3 times (150 μL each) with TBS. […] A ten-fold excess of volume of the same buffer was added and cells were centrifuged. The medium was decanted and cells were resuspended at a concentration of 2×10^6 cells/mL in RPMI/0.05% BSA/0.2 mM MnCl2. Stock solutions (10 mM in DMSO) of test compounds were diluted to 2.5 mM with DMSO. […] Each sample was further diluted 50-fold with RPMI/0.05% BSA/0.2 mM MnCl2. Equal volumes of labeled cells were then added to assay tubes containing diluted compounds. […] Cells were incubated for 10 min at 37° C. with gentle shaking, then dispensed (100 μL per well) onto fibrinogen coated plates and incubated for 30 min at 37° C./5% CO2. Unbound cells were gently washed with TBS two times.

[2] = molecular target: T1, LFA-1 binding to immobilized ICAM-1 (Homo sapiens, UniProt P05107+P20701); assay: LFA-1/ICAM-1 protein-protein assay (solid-phase ELISA); details: read-out: LFA-1/ICAM-1 Protein-Protein Assay IC50
T1 construct: made in house; host or cells: transfected 293 cells (LFA-1)
T1 sequence (P20701 26-1170): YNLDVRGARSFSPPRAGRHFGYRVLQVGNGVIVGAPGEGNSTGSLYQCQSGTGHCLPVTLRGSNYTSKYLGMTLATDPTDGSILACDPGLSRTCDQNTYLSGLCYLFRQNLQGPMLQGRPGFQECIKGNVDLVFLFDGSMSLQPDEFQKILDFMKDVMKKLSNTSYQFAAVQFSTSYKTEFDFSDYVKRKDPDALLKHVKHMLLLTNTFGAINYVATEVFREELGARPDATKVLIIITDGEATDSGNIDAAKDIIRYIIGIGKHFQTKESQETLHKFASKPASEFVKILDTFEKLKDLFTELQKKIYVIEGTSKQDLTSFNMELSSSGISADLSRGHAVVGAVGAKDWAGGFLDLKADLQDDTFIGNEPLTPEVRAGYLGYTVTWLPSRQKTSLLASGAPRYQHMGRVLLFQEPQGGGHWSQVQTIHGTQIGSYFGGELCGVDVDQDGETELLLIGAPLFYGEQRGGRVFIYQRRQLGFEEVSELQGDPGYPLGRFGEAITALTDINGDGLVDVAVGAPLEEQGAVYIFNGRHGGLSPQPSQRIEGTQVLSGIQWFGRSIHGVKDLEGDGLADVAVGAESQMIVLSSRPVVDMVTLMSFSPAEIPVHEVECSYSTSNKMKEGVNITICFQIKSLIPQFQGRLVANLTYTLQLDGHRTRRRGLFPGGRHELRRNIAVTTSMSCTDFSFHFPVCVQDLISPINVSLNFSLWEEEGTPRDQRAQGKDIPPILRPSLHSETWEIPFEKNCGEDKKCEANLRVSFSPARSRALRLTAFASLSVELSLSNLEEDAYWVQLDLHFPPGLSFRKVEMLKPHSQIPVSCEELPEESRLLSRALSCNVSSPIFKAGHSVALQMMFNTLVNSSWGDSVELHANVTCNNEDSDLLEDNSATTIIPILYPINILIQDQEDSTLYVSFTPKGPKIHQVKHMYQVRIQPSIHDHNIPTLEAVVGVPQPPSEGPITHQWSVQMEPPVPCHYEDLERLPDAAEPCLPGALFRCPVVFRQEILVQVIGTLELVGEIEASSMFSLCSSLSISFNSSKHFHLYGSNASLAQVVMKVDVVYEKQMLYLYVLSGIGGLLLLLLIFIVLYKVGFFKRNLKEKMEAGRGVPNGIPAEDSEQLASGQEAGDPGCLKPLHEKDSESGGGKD
T1 sequence (P05107 23-769): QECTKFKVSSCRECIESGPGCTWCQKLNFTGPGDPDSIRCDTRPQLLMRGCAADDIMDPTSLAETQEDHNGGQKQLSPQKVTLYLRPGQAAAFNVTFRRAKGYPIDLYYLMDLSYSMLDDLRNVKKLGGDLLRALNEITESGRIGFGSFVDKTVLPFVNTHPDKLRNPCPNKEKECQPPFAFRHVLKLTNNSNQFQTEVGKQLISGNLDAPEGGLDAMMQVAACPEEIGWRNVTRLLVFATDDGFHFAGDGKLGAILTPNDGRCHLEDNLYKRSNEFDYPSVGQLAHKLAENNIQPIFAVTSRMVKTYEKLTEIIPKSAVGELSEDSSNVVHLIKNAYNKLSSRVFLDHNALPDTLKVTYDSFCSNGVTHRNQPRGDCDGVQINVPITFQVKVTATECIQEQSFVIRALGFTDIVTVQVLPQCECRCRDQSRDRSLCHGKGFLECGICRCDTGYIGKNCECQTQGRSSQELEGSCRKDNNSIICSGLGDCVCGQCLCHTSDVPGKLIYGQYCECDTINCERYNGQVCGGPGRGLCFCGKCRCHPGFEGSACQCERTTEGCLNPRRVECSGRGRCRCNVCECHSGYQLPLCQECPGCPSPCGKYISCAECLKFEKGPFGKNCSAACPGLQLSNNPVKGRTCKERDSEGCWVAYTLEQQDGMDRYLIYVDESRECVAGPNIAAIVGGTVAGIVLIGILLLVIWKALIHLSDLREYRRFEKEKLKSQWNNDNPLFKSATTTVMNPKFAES
Outline: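 Human 5dICAM-Ig (ICAM-1 extracellular domain–IgG Fc) coated on plates; membrane-bound LFA-1 from transfected 293 cells (280 ng/mL) added with compound in Mn2+-containing HEPES buffer pH 7.2, 2 h at 37° C. Bound LFA-1 detected via anti-β2 antibody and HRP/TMB at 450 nm; IC50s determined.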

[3] = test system: T lymphocyte proliferation (C57BI/6 spleen cells with irradiated BALB/c spleen cells); assay: Mixed lymphocyte reaction (MLR), one-way; type: cell-based, mice; details: read-out: MLR IC50
Text: Admixture of murine spleen cells from two different inbred strains of mice induces proliferation of T lymphocytes. The magnitude of T cell proliferation depends on the extent of disparity in the major histocompatibility antigens between the two strains. Splenic T lymphocytes from both strains proliferate due to alloantigen recognition, a process for which the interaction of ICAM-1 on antigen-presenting cells with LFA-1 on lymphocytes is necessary. The ability of antagonists to inhibit T lymphocyte proliferation following recognition of alloantigens was assessed in a one-way MLR, where cells from one strain were irradiated to permit measurement of the proliferative response of cells from the other strain. Spleen cells were washed three times in tissue culture medium (TCM; see below). […] One hundred microliters of serial dilutions of antagonists or TCM were added to the spleen cell mixture. The total volume in each well was 200 μL. TCM was RPMI1640 containing 10% heat-inactivated fetal bovine serum, […] L-glutamine, 100 Units/ml each of penicillin and streptomycin and 5×10^−5 M 2-mercaptoethanol. Dilutions of antagonists were prepared in TCM. Plates were incubated in 5% CO2 for 3 days. On the third day, 0.5 μCi of tritiated thymidine (10 μCi/mL) was added to all the wells. Cells were harvested 6 h later on a 96-well plate harvester and the amount of tritiated thymidine incorporated was assessed in a liquid scintillation counter.

[4] = Homo sapiens, HL-60, HL-60 cells

Row | IC50 [1, 4] [nM] | IC50 [2] [nM] | IC50 ([1]; HL-60 cells) [nM] | SMILES | IC50 ([3]; Mus musculus, T-lymphocyte) [nM] | IC50 [3] [nM]
1 | 64 | 1 |  | O=C(NC[C@H](NC(=O)c1ccc(C(O)CCc2cccc(O)c2)cc1Cl)C(=O)O)c1cccs1 (mixture of isomers) [Example 320] | 145 | 
2 | 149 | 7.1 |  | O=C(NCc1cccc(O)c1)c1ccc(C(=O)N[C@@H](CNC(=O)c2cc(Br)cc(Br)c2)C(=O)O)c(Cl)c1 [Example 228, N-[2-chloro-4-[[[(3-hydroxyphenyl)methyl]amino]carbonyl]benzoyl]-3-(3,5-dibromobenzoyl)amino-L-alanine] | 5000 | 
3 | 330 | 5.4 |  | O=C(NCc1cccc(O)c1)c1ccc(C(=O)N[C@@H](CNC(=O)c2cc(F)cc(C(F)(F)F)c2)C(=O)O)c(Cl)c1 [Example 260] | 1950 | 
4 | 71 | 2.9 |  | O=C(NCc1cccc(O)c1)c1ccc(C(=O)N[C@@H](CNC(=O)[C@@H]2CSCN2)C(=O)O)c(Cl)c1 [Example 267] | 490 | 
5 | 148 | 1.7 |  | O=C(NCc1cccc(O)c1)c1ccc(C(=O)N[C@@H](CNC(=O)[C@@H]2C[C@@H](O)CN2)C(=O)O)c(Cl)c1 [Example 268] | 900 | 
6 | 357 | 7.9 |  | NCCCCCCCCCCC(=O)NC[C@H](NC(=O)c1ccc(C(=O)NCc2cccc(O)c2)cc1Cl)C(=O)O [Example 270] | 4750 | 
7 | 547 | 3.8 |  | N[C@@H](Cc1ccc([N+](=O)[O-])cc1)C(=O)NC[C@H](NC(=O)c1ccc(C(=O)NCc2cccc(O)c2)cc1Cl)C(=O)O [Example 271] | 4100 | 
8 | 1740 | 7.4 |  | N[C@@H](Cc1ccc(OCc2c(Cl)cccc2Cl)cc1)C(=O)NC[C@H](NC(=O)c1ccc(C(=O)NCc2cccc(O)c2)cc1Cl)C(=O)O [Example 273] | 12000 | 
9 | 235 | 6.9 |  | N[C@H](Cc1c[nH]c2ccccc12)C(=O)NC[C@H](NC(=O)c1ccc(C(=O)NCc2cccc(O)c2)cc1Cl)C(=O)O [Example 276] | 7250 | 
10 | 282 | 4.3 |  | CC(C)C[C@H](N)C(=O)NC[C@H](NC(=O)c1ccc(C(=O)NCc2cccc(O)c2)cc1Cl)C(=O)O [Example 277] | 8700 | 
11 | 311 | 8.5 |  | CCCC[C@H](N)C(=O)NC[C@H](NC(=O)c1ccc(C(=O)NCc2cccc(O)c2)cc1Cl)C(=O)O [Example 278] | 13500 | 
12 | 371 | 8 |  | CN[C@@H](C)C(=O)NC[C@H](NC(=O)c1ccc(C(=O)NCc2cccc(O)c2)cc1Cl)C(=O)O [Example 279] | 2200 | 
13 |  | 3.1 | 77 | C[C@H](N)C(=O)NC[C@H](NC(=O)c1ccc(C(=O)NCc2cccc(O)c2)cc1Cl)C(=O)O [Example 280] | 4200 | 
14 |  |  | 291 | C[C@H](N)C(=O)NC[C@H](NC(=O)c1ccc(C(=O)NCc2cccc(O)c2)cc1Cl)C(=O)O [Example 281] |  | 4450
15 | 162 | 4.6 |  | CC(C)(N)C(=O)NC[C@H](NC(=O)c1ccc(C(=O)NCc2cccc(O)c2)cc1Cl)C(=O)O [Example 282] | 1050 | 
16 | 166 | 3.1 |  | CNCC(=O)NC[C@H](NC(=O)c1ccc(C(=O)NCc2cccc(O)c2)cc1Cl)C(=O)O [Example 283] | 1500 | 

Row | IC50 [1, 4] [nM] | IC50 [2] [nM] | IC50 ([1]; HL-60 cells) [nM] | SMILES | IC50 ([3]; Mus musculus, T-lymphocyte) [nM] | IC50 [3] [nM]
17 | 198 | 5.7 |  | NC1(C(=O)NC[C@H](NC(=O)c2ccc(C(=O)NCc3cccc(O)c3)cc2Cl)C(=O)O)CCCCC1 [Example 284] | 1130 | 
18 | 135 | 3.1 |  | N[C@H](C(=O)NC[C@H](NC(=O)c1ccc(C(=O)NCc2cccc(O)c2)cc1Cl)C(=O)O)c1ccccc1 [Example 285] | 3100 | 
19 | 74 | 4.1 |  | NC[C@H]1CC[C@H](C(=O)NC[C@H](NC(=O)c2ccc(C(=O)NCc3cccc(O)c3)cc2Cl)C(=O)O)CC1 [Example 286] | 1520 | 
20 | 290 | 6.3 |  | N[C@@H](COCc1ccccc1)C(=O)NC[C@H](NC(=O)c1ccc(C(=O)NCc2cccc(O)c2)cc1Cl)C(=O)O [Example 293] | 13500 | 
21 | 89 | 1.9 |  | N[C@H]1Cc2ccccc2CN(CC(=O)NC[C@H](NC(=O)c2ccc(C(=O)NCc3cccc(O)c3)cc2Cl)C(=O)O)C1=O [Example 295] | 1620 | 
22 | 167 | 3.4 |  | O=C(NCc1cccc(O)c1)c1ccc(C(=O)N[C@@H](CNC(=O)[C@@H]2Cc3c([nH]c4ccccc34)CN2)C(=O)O)c(Cl)c1 [Example 296] | 4600 | 
23 | 32 | 1.5 |  | Cc1cc(C(=O)NCc2cccc(O)c2)ccc1C(=O)N[C@@H](CNC(=O)c1ccccc1)C(=O)O [Example 324] | 460 | 
24 | 59 | 2.6 |  | Cc1cc(C(=O)N[C@H](C)c2cccc3ccccc23)ccc1C(=O)N[C@@H](CNC(=O)c1cccs1)C(=O)O [Example 325] | 965 | 
25 | 93 | 4.1 |  | Cc1cc(C(=O)N[C@H](C)c2cccc3ccccc23)ccc1C(=O)N[C@@H](CNC(=O)c1ccccc1)C(=O)O [Example 326] | 1500 | 
26 | 28 | 1.3 |  | O=C(NCc1cccc(O)c1)c1ccc(C(=O)N[C@@H](CNC(=O)c2cccs2)C(=O)O)c(Br)c1 [Example 328, N-[2-bromo-4-[[[(3-hydroxyphenyl)methyl]amino]carbonyl]benzoyl]-3-(thiophene-2-carbonyl)amino-L-alanine] | 160 | 
27 | 68 | 1.1 |  | O=C(NCc1cccc(O)c1)c1ccc(C(=O)N[C@@H](CNC(=O)c2cccs2)C(=O)O)c(F)c1 [Example 331] | 710 | 
28 | 19.8 | 1.3 |  | O=C(NCc1cccc(O)c1)c1cc(Cl)c(C(=O)N[C@@H](CNC(=O)c2cccc(Cl)c2)C(=O)O)c(Cl)c1 [Example 348, 3-[(3-chlorobenzoyl)amino]-N-[2,6-dichloro-4-[[[(3-hydroxyphenyl)methyl]amino]carbonyl]benzoyl]-L-alanine] | 173 | 
29 | 28 | 1.2 |  | Cc1cccc(C(=O)NC[C@H](NC(=O)c2c(Cl)cc(C(=O)NCc3cccc(O)c3)cc2Cl)C(=O)O)c1 [Example 352] | 91 | 
30 | 17.7 | 0.9 |  | O=C(NCc1cccc(O)c1)c1cc(Cl)c(C(=O)N[C@@H](CNC(=O)c2sccc2Cl)C(=O)O)c(Cl)c1 [Example 355] | 86 | 
31 | 81 | 3.4 |  | O=C(NCc1cccc(O)c1)c1cc(Cl)c(C(=O)N[C@@H](CNC(=O)c2cc(Br)c(Br)s2)C(=O)O)c(Cl)c1 [Example 356] | 1760 | 
32 | 23 | 0.5 |  | Cc1ccsc1C(=O)NC[C@H](NC(=O)c1c(Cl)cc(C(=O)NCc2cccc(O)c2)cc1Cl)C(=O)O [Example 357] | 21 | 
